In US12427157B2, “Methods for treatment of diseases involving acidic or hypoxic diseased tissues” (Cybrexa 1, Inc., priority 2018, dated 2025):
Residues, ends and D or L forms follow the SMILES beside them. *: point of attachment. X23 = COC(=O)[C@@H](CS*)OC(=O)N(C)Cc1ccc(-c2[nH]c3cc(F)cc4c3c2CCNC4=O)cc1; X24 = CN(Cc1ccc(-c2[nH]c3cc(F)cc4c3c2CCNC4=O)cc1)C(=O)O[C@H](CS*)c1ccccc1; X6 = CNCc1ccc(-c2c3c4c(cc(F)cc4n2[C@@H](CC(C)C)NC(=O)OCCS*)C(=O)NCC3)cc1; X15 = Cc1cc(S*)ccc1COC(=O)N(C)Cc1ccc(-c2[nH]c3cc(F)cc4c3c2CCNC4=O)cc1; X9 = C[C@@H](COC(=O)N(C)Cc1ccc(-c2[nH]c3cc(F)cc4c3c2CCNC4=O)cc1)S*; X20 = C[C@]12CCCN1C1=NNC(=O)c3cc(F)cc4c3c1c(n4CNC(=O)OCCS*)C2
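Also: PARP reaction with activated DNA run 1 h at room temperature, product detected via streptavidin-HRP and luminescence endpoint reading on a plate reader.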

Each compound was assayed against PARP (Homo sapiens, UniProt P09874) (assay: Enzymatic Assay 2: HT Universal Chemiluminescent PARP Assay of cleaved compounds). Details: not given.
PARP, sequence (P09874 whole entry): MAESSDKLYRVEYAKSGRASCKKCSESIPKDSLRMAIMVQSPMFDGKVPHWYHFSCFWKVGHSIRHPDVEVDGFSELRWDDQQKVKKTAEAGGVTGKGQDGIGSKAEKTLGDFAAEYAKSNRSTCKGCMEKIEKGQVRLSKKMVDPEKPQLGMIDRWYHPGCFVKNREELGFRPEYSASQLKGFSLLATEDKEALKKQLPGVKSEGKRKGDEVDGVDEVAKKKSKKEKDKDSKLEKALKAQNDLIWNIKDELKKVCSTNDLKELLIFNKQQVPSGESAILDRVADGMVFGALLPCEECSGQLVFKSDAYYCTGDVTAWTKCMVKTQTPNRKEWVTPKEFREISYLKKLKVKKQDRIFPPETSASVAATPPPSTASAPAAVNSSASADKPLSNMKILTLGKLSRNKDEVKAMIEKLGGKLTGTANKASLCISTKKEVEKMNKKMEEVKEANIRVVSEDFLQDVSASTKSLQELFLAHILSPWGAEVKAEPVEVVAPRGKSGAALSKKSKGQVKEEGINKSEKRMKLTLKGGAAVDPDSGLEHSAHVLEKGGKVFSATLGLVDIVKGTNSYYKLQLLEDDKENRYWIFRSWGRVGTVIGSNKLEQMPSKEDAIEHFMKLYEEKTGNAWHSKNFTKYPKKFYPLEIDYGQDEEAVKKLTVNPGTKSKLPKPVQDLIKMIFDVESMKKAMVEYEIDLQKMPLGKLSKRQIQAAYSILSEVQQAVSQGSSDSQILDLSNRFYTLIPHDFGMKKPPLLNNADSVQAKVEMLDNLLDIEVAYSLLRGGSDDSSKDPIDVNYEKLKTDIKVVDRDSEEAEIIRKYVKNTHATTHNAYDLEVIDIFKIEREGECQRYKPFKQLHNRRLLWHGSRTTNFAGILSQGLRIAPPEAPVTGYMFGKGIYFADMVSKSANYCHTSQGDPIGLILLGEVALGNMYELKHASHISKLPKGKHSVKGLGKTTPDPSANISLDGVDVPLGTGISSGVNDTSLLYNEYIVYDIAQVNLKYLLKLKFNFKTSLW
For `C[C@]12CCCN1C1=NNC(=O)c3cc(F)cc4[nH]c(c1c34)C2` [R^8H-17, reference compound], the IC50 was 1 nM.

Same assay, conditions: read-out: IC50 Enzymatic Assay 2; Examples cleaved per Example A (crude cleavage solution); R^8H starting materials as such
`CC[C@H](C)[C@H](NC(=O)[C@@H]1CCCN1C(=O)[C@H](CC(N)=O)NC(=O)[C@H](CCC(N)=O)NC(=O)[C@H](CCC(=O)O)NC(=O)[C@H](C)N)C(=O)N[C@@H](Cc1ccc(O)cc1)C(=O)N[C@@H](Cc1c[nH]c2ccccc12)C(=O)N[C@@H](C)C(=O)N[C@@H](CCCNC(=N)N)C(=O)N[C@@H](Cc1ccc(O)cc1)C(=O)N[C@@H](C)C(=O)N[C@@H](CC(=O)O)C(=O)N[C@@H](Cc1c[nH]c2ccccc12)C(=O)N[C@@H](CC(C)C)C(=O)N[C@@H](Cc1ccccc1)C(=O)N[C@H](C(=O)N[C@H](C(=O)N1CCC[C@H]1C(=O)N[C@@H](CC(C)C)C(=O)N[C@@H](CC(C)C)C(=O)N[C@@H](CC(C)C)C(=O)N[C@@H](CC(C)C)C(=O)N[C@@H](CC(=O)O)C(=O)N[C@@H](CC(C)C)C(=O)N[C@@H](C)C(=O)N[C@@H](CC(C)C)C(=O)N[C@@H](CC(C)C)C(=O)N[C@H](C(=O)N[C@@H](CC(=O)O)C(=O)N[C@@H](C)C(=O)N[C@@H](CC(=O)O)C(=O)N[C@@H](CCC(=O)O)C(=O)N[C@@H](CSSCCOC(=O)NCn1c2c3c4c(cc(F)cc41)C(=O)NN=C3N1CCC[C@]1(C)C2)C(=O)NCC(=O)O)C(C)C)[C@@H](C)O)[C@@H](C)O` [Example 38] (H-AEQNPIYWARYADWLFTTPLLLLDLALLVDADEC(X20)G-OH; N-terminus and C-terminus assumed) was tested, and the IC50 was 2.8 nM. With `CC(C)C[C@H](NC(=O)[C@H](Cc1ccc(O)cc1)NC(=O)[C@H](C)NC(=O)[C@H](CCCNC(=N)N)NC(=O)[C@H](Cc1c[nH]c2ccccc12)NC(=O)[C@@H]1CCCN1C(=O)[C@H](CC(N)=O)NC(=O)[C@H](CCC(N)=O)NC(=O)[C@H](CC(=O)O)NC(=O)[C@H](CC(=O)O)NC(=O)[C@H](C)N)C(=O)N[C@@H](CC(=O)O)C(=O)N[C@@H](CC(C)C)C(=O)N[C@@H](CC(C)C)C(=O)N[C@@H](Cc1ccccc1)C(=O)N1CCC[C@H]1C(=O)N[C@H](C(=O)N[C@@H](CC(=O)O)C(=O)N[C@H](C(=O)N[C@@H](CC(C)C)C(=O)N[C@@H](CC(C)C)C(=O)N[C@@H](CC(C)C)C(=O)N[C@@H](CC(=O)O)C(=O)N[C@@H](CC(C)C)C(=O)N[C@@H](CC(C)C)C(=O)N[C@@H](Cc1c[nH]c2ccccc12)C(=O)N[C@@H](CSS[C@@H](C)COC(=O)N(C)Cc1ccc(-c2[nH]c3cc(F)cc4c3c2CCNC4=O)cc1)C(=O)NCC(=O)O)[C@@H](C)O)[C@@H](C)O` [Example 21] the IC50 was 2.2 nM. In the case of `CC(C)C[C@H](NC(=O)[C@H](Cc1ccc(O)cc1)NC(=O)[C@H](C)NC(=O)[C@H](CCCNC(=N)N)NC(=O)[C@H](Cc1c[nH]c2ccccc12)NC(=O)[C@@H]1CCCN1C(=O)[C@H](CC(N)=O)NC(=O)[C@H](CCC(N)=O)NC(=O)[C@H](CC(=O)O)NC(=O)[C@H](CC(=O)O)NC(=O)[C@H](C)N)C(=O)N[C@@H](CC(=O)O)C(=O)N[C@@H](CC(C)C)C(=O)N[C@@H](CC(C)C)C(=O)N[C@@H](Cc1ccccc1)C(=O)N1CCC[C@H]1C(=O)N[C@H](C(=O)N[C@@H](CC(=O)O)C(=O)N[C@H](C(=O)N[C@@H](CC(C)C)C(=O)N[C@@H](CC(C)C)C(=O)N[C@@H](CC(C)C)C(=O)N[C@@H](CC(=O)O)C(=O)N[C@@H](CC(C)C)C(=O)N[C@@H](CC(C)C)C(=O)N[C@@H](Cc1c[nH]c2ccccc12)C(=O)N[C@@H](CC(=O)O)C(=O)N[C@@H](C)C(=O)N[C@@H](CC(=O)O)C(=O)N[C@@H](CCC(=O)O)C(=O)N[C@@H](CSSCCOC(=O)N1CCC[C@@H](c2ccc(-n3cc4cccc(C(N)=O)c4n3)cc2)C1)C(=O)NCC(=O)O)[C@@H](C)O)[C@@H](C)O` [Example 10], the IC50 is reported as 64.9 nM. Work on `CC[C@H](C)[C@H](NC(=O)[C@@H]1CCCN1C(=O)[C@H](CC(N)=O)NC(=O)[C@H](CCC(N)=O)NC(=O)[C@H](CCC(=O)O)NC(=O)[C@H](C)N)C(=O)N[C@@H](Cc1ccc(O)cc1)C(=O)N[C@@H](Cc1c[nH]c2ccccc12)C(=O)N[C@@H](C)C(=O)N[C@@H](CCCNC(=N)N)C(=O)N[C@@H](Cc1ccc(O)cc1)C(=O)N[C@@H](C)C(=O)N[C@@H](CC(=O)O)C(=O)N[C@@H](Cc1c[nH]c2ccccc12)C(=O)N[C@@H](CC(C)C)C(=O)N[C@@H](Cc1ccccc1)C(=O)N[C@H](C(=O)N[C@H](C(=O)N1CCC[C@H]1C(=O)N[C@@H](CC(C)C)C(=O)N[C@@H](CC(C)C)C(=O)N[C@@H](CC(C)C)C(=O)N[C@@H](CC(C)C)C(=O)N[C@@H](CC(=O)O)C(=O)N[C@@H](CC(C)C)C(=O)N[C@@H](C)C(=O)N[C@@H](CC(C)C)C(=O)N[C@@H](CC(C)C)C(=O)N[C@H](C(=O)N[C@@H](CC(=O)O)C(=O)N[C@@H](C)C(=O)N[C@@H](CC(=O)O)C(=O)N[C@@H](CCC(=O)O)C(=O)N[C@@H](CSSCCOC(=O)N[C@H](CC(C)C)n1c(-c2ccc(CNC)cc2)c2c3c(cc(F)cc31)C(=O)NCC2)C(=O)NCC(=O)O)C(C)C)[C@@H](C)O)[C@@H](C)O` [Example 35] (H-AEQNPIYWARYADWLFTTPLLLLDLALLVDADEC(X6)G-OH; N-terminus and C-terminus assumed) yielded an IC50 of 3.1 nM. For `CC[C@H](C)[C@H](NC(=O)[C@@H]1CCCN1C(=O)[C@H](CC(N)=O)NC(=O)[C@H](CCC(N)=O)NC(=O)[C@H](CCC(=O)O)NC(=O)[C@H](C)N)C(=O)N[C@@H](Cc1ccc(O)cc1)C(=O)N[C@@H](Cc1c[nH]c2ccccc12)C(=O)N[C@@H](C)C(=O)N[C@@H](CCCNC(=N)N)C(=O)N[C@@H](Cc1ccc(O)cc1)C(=O)N[C@@H](C)C(=O)N[C@@H](CC(=O)O)C(=O)N[C@@H](Cc1c[nH]c2ccccc12)C(=O)N[C@@H](CC(C)C)C(=O)N[C@@H](Cc1ccccc1)C(=O)N[C@H](C(=O)N[C@H](C(=O)N1CCC[C@H]1C(=O)N[C@@H](CC(C)C)C(=O)N[C@@H](CC(C)C)C(=O)N[C@@H](CC(C)C)C(=O)N[C@@H](CC(C)C)C(=O)N[C@@H](CC(=O)O)C(=O)N[C@@H](CC(C)C)C(=O)N[C@@H](C)C(=O)N[C@@H](CC(C)C)C(=O)N[C@@H](CC(C)C)C(=O)N[C@H](C(=O)N[C@@H](CC(=O)O)C(=O)N[C@@H](C)C(=O)N[C@@H](CC(=O)O)C(=O)N[C@@H](CCC(=O)O)C(=O)N[C@@H](CSSC[C@@H](OC(=O)N(C)Cc1ccc(-c2[nH]c3cc(F)cc4c3c2CCNC4=O)cc1)C(=O)OC)C(=O)NCC(=O)O)C(C)C)[C@@H](C)O)[C@@H](C)O` [Example 26] (H-AEQNPIYWARYADWLFTTPLLLLDLALLVDADEC(X23)G-OH; N-terminus and C-terminus assumed), the IC50 was 2 nM. Compound `CC[C@H](C)[C@H](NC(=O)[C@@H]1CCCN1C(=O)[C@H](CC(N)=O)NC(=O)[C@H](CCC(N)=O)NC(=O)[C@H](CCC(=O)O)NC(=O)[C@H](C)N)C(=O)N[C@@H](Cc1ccc(O)cc1)C(=O)N[C@@H](Cc1c[nH]c2ccccc12)C(=O)N[C@@H](C)C(=O)N[C@@H](CCCNC(=N)N)C(=O)N[C@@H](Cc1ccc(O)cc1)C(=O)N[C@@H](C)C(=O)N[C@@H](CC(=O)O)C(=O)N[C@@H](Cc1c[nH]c2ccccc12)C(=O)N[C@@H](CC(C)C)C(=O)N[C@@H](Cc1ccccc1)C(=O)N[C@H](C(=O)N[C@H](C(=O)N1CCC[C@H]1C(=O)N[C@@H](CC(C)C)C(=O)N[C@@H](CC(C)C)C(=O)N[C@@H](CC(C)C)C(=O)N[C@@H](CC(C)C)C(=O)N[C@@H](CC(=O)O)C(=O)N[C@@H](CC(C)C)C(=O)N[C@@H](C)C(=O)N[C@@H](CC(C)C)C(=O)N[C@@H](CC(C)C)C(=O)N[C@H](C(=O)N[C@@H](CC(=O)O)C(=O)N[C@@H](C)C(=O)N[C@@H](CC(=O)O)C(=O)N[C@@H](CCC(=O)O)C(=O)N[C@@H](CSSc1ccc(COC(=O)N(C)Cc2ccc(-c3[nH]c4cc(F)cc5c4c3CCNC5=O)cc2)c(C)c1)C(=O)NCC(=O)O)C(C)C)[C@@H](C)O)[C@@H](C)O` [Example 30] (H-AEQNPIYWARYADWLFTTPLLLLDLALLVDADEC(X15)G-OH; N-terminus and C-terminus assumed) has an IC50 of 2.9 nM. Work on `CC[C@H](C)[C@H](NC(=O)[C@@H]1CCCN1C(=O)[C@H](CC(N)=O)NC(=O)[C@H](CCC(N)=O)NC(=O)[C@H](CCC(=O)O)NC(=O)[C@H](C)N)C(=O)N[C@@H](Cc1ccc(O)cc1)C(=O)N[C@@H](Cc1c[nH]c2ccccc12)C(=O)N[C@@H](C)C(=O)N[C@@H](CCCNC(=N)N)C(=O)N[C@@H](Cc1ccc(O)cc1)C(=O)N[C@@H](C)C(=O)N[C@@H](CC(=O)O)C(=O)N[C@@H](Cc1c[nH]c2ccccc12)C(=O)N[C@@H](CC(C)C)C(=O)N[C@@H](Cc1ccccc1)C(=O)N[C@H](C(=O)N[C@H](C(=O)N1CCC[C@H]1C(=O)N[C@@H](CC(C)C)C(=O)N[C@@H](CC(C)C)C(=O)N[C@@H](CC(C)C)C(=O)N[C@@H](CC(C)C)C(=O)N[C@@H](CC(=O)O)C(=O)N[C@@H](CC(C)C)C(=O)N[C@@H](C)C(=O)N[C@@H](CC(C)C)C(=O)N[C@@H](CC(C)C)C(=O)N[C@H](C(=O)N[C@@H](CC(=O)O)C(=O)N[C@@H](C)C(=O)N[C@@H](CC(=O)O)C(=O)N[C@@H](CCC(=O)O)C(=O)N[C@@H](CSSC[C@@H](OC(=O)N(C)Cc1ccc(-c2[nH]c3cc(F)cc4c3c2CCNC4=O)cc1)c1ccccc1)C(=O)NCC(=O)O)C(C)C)[C@@H](C)O)[C@@H](C)O` [Example 25] (H-AEQNPIYWARYADWLFTTPLLLLDLALLVDADEC(X24)G-OH; N-terminus and C-terminus assumed) yielded an IC50 of 3.4 nM. `CC[C@H](C)[C@H](NC(=O)[C@@H]1CCCN1C(=O)[C@H](CC(N)=O)NC(=O)[C@H](CCC(N)=O)NC(=O)[C@H](CCC(=O)O)NC(=O)[C@H](C)N)C(=O)N[C@@H](Cc1ccc(O)cc1)C(=O)N[C@@H](Cc1c[nH]c2ccccc12)C(=O)N[C@@H](C)C(=O)N[C@@H](CCCNC(=N)N)C(=O)N[C@@H](Cc1ccc(O)cc1)C(=O)N[C@@H](C)C(=O)N[C@@H](CC(=O)O)C(=O)N[C@@H](Cc1c[nH]c2ccccc12)C(=O)N[C@@H](CC(C)C)C(=O)N[C@@H](Cc1ccccc1)C(=O)N[C@H](C(=O)N[C@H](C(=O)N1CCC[C@H]1C(=O)N[C@@H](CC(C)C)C(=O)N[C@@H](CC(C)C)C(=O)N[C@@H](CC(C)C)C(=O)N[C@@H](CC(C)C)C(=O)N[C@@H](CC(=O)O)C(=O)N[C@@H](CC(C)C)C(=O)N[C@@H](C)C(=O)N[C@@H](CC(C)C)C(=O)N[C@@H](CC(C)C)C(=O)N[C@H](C(=O)N[C@@H](CC(=O)O)C(=O)N[C@@H](C)C(=O)N[C@@H](CC(=O)O)C(=O)N[C@@H](CCC(=O)O)C(=O)N[C@@H](CSS[C@@H](C)COC(=O)N(C)Cc1ccc(-c2[nH]c3cc(F)cc4c3c2CCNC4=O)cc1)C(=O)NCC(=O)O)C(C)C)[C@@H](C)O)[C@@H](C)O` [Example 22] (H-AEQNPIYWARYADWLFTTPLLLLDLALLVDADEC(X9)G-OH; N-terminus and C-terminus assumed) gave an IC50 of 1.8 nM.
